This is an account of results in patent publication US20080234188A1, “Antimicrobial Peptides” (The Hospital for Sick Children, priority 2001, published 2008).

Data set [1] deals with C498: E. coli, wild type strain. The data set is classed as cell-based. The settings on record: C498: , wild type strain. A digest of the protocol: (§1)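 Broth microdilution in Mueller Hinton Broth, 2−7×10^5 CFU/ml, peptides added from 10× stocks serially diluted in 0.01% acetic acid, 0.2% BSA. Incubated at 37° C for 18-24 hours, rechecked at 40-48 hours; growth read visually and at 600 nm.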

Data set [2] relates to C500: E. coli, antibiotic strain. It counts as cell-based. The settings on record: C500: , antibiotic strain. An outline of the steps: as §1
For data set [3], the system named is Corynebacterium xerosis (C875). It counts as cell-based. An outline of the steps: (§2)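 Broth microdilution in Mueller Hinton Broth, inoculum 2−7×10^5 CFU/ml. Peptides serially doubled in 0.01% acetic acid, 0.2% BSA and added at 10× final concentration. Incubation 37° C for 18-24 h, rechecked at 40-48 h; growth read visually and at 600 nm.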
Data set [4] deals with Staphylococcus epidermidis (C621). It counts as cell-based. The note with it: C621. An outline of the steps: as §2
A further data set deals with E. coli DC2. Description: Assay of antibacterial activity (MIC), E. coli DC2. The data set is classed as cell-based, Escherichia coli. An outline of the steps:
(§3)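 Growth is scored visually and by absorbance at 600 nm after 18-24 h at 37° C, with a second check at 40-48 h. Bacteria are seeded at 2−7×10^5 CFU/ml in Mueller Hinton broth against twofold peptide dilutions made up in 0.01% acetic acid, 0.2% BSA.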

The test system of another data set is E. coli UB1005. It counts as cell-based, Escherichia coli. The note with it: UB1005. A digest of the protocol: as §3
The subject of a further data set is E. coli ATCC25922. The data set is classed as cell-based. The text has this: (§4) The bacterial strains used were E. coli C498, E. coli C500, Escherichia coli UB1005 and its antibiotic supersusceptible derivative DC2 (22); a clinical isolate of Staphylococcus epidermidis (C621); coryneform bacterial strain Corynebacterium xerosis (C875); and E. coli ATCC 25922, Staphylococcus aureus ATCC 25923, Enterococcus faecalis ATCC 29212, Bacillus subtilis ATCC 6633 and Pseudomonas aeruginosa ATCC 27853, all from American Type Culture Collection.
(§5) Peptide antibacterial activity was assessed by the method of R. Hancock et al. (Wu & Hancock (1999), J. Biol. Chem., v. 274, pp. 29-35). Test strains of bacteria from Mueller Hinton agar (MHA) plates were inoculated into 5 ml Mueller Hinton Broth (MHB) in tubes and grown overnight at 37° C. on a shaker (180 rpm). Serial dilutions of test peptides (at 10 times the required test concentrations) were made in 0.01% acetic acid, 0.2% BSA, in polypropylene or coated glass tubes as follows: the test peptide was (a) dissolved in distilled water at 20 times the required maximum concentration (enough final volume for all tests to be performed on a given day); (b) diluted into an equal volume of 0.02% acetic acid, 0.4% BSA to give 10 times the required maximum concentration; (c) serial doubling dilutions were performed in 0.01% acetic acid, 0.2% BSA to provide serial dilutions of peptides at 10 times the required test concentrations, e.g., 640, 320, 160, . . . 2.5 μg/ml. (No deleterious effects of long-term storage of peptides in these media have been detected). Overnight bacterial cultures were diluted in MHB to give 2−7×10^5 colony forming units/ml. Bacterial suspension (100 μl) was dispensed in each well; controls without bacteria were maintained in parallel. To each well was added 11 μl of 10× test peptide and plates were incubated at 37° C. for 18-24 hours, and checked again at 40-48 hours. Plates were read visually and at 600 nm in a microplate reader (Molecular Devices).
(§6) A further number of the peptides of the invention were tested for antimicrobial activity against a range of Gram-positive and Gram-negative bacteria by the assay described immediately before Example 1.

For another data set, the system named is P. aeruginosa ATCC27853. The data set is classed as cell-based, Pseudomonas aeruginosa.
From the text: as §4, §5, §6

A further data set has as its system S. aureus ATCC25923. It counts as cell-based, Staphylococcus aureus.
From the text: as §4, §5, §6

Another data set relates to E. faecalis ATCC29212. The data set is classed as cell-based, Enterococcus faecalis.
From the text: as §4, §5, §6

The next data set concerns B. subtilis ATCC6633. It counts as cell-based, Bacillus subtilis.
From the text: as §4, §5, §6

The test system of the next data set is Human RBC. It counts as cell-based. An outline of the steps: (§7)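 Washed rabbit or human erythrocytes (4% v/v in PBS pH 7.3) incubated with peptide dilutions 1 h at 37° C. Hemoglobin release read at 540 nm in supernatant, relative to PBS control and 0.1% Triton X-100 as 100% lysis; peptides tested at […].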
For another data set, the system named is Rabbit RBC. The data set is classed as cell-based. A digest of the protocol:
as §7

≈ marks a conversion by molar mass, not a printed value. Where a SMILES comes first, the peptide text is derived from it.

With `C[C@H](NC(=O)[C@H](C)NC(=O)[C@H](Cc1ccccc1)NC(=O)[C@H](C)NC(=O)[C@H](C)NC(=O)[C@H](CCCNC(=N)N)NC(=O)[C@H](CCCNC(=N)N)NC(=O)[C@@H](N)CCCNC(=N)N)C(=O)N[C@@H](Cc1c[nH]c2ccccc12)C(=O)N[C@@H](C)C(=O)N[C@@H](C)C(=O)N[C@@H](Cc1ccccc1)C(=O)N[C@@H](C)C(=O)N[C@@H](C)C(=O)N[C@@H](CCCNC(=N)N)C(=O)N[C@@H](CCCNC(=N)N)C(=O)N[C@@H](CCCNC(=N)N)C(N)=O` [Peptide F17R, RRRAAFAAWAAFAARRR-NH2] (H-RRRAAFAAWAAFAARRR-NH2; N-terminus assumed), the “MIC C498” value in data set [1] is 2 µM (≈ 4.01 µg/mL). For the same compound, in [2], the “MIC C500” value was 0.5 µM (≈ 1 µg/mL). For the same compound, in data set [3], the “MIC C875” value turned out to be 1 µM (≈ 2 µg/mL) and the “MIC C. xerosis C875” value came out at 1 µM (≈ 2 µg/mL). The “MIC S. epidermidis C621” value in data set [4] was found to be 4 µM (≈ 8.01 µg/mL). Moreover, the “MIC E. coli DC2” value with E. coli DC2 (Table 5A) is 1 µM (≈ 2 µg/mL). The “MIC E. coli UB1005” value against E. coli UB1005 came to 2 µM (≈ 4.01 µg/mL). The “MIC E. coli ATCC25922” value against E. coli ATCC25922 worked out at 8 µM (≈ 16 µg/mL). Also, in the data set with P. aeruginosa ATCC27853, the “MIC P. aeruginosa ATCC27853” value was 16 µM (≈ 32.1 µg/mL). In the data set on S. aureus ATCC25923, the “MIC S. aureus ATCC25923” value is over 32 µM. In addition, in the data set on E. faecalis ATCC29212, the “MIC E. faecalis ATCC29212” value is over 32 µM. The “MIC B. subtilis ATCC6633” value in the data set on B. subtilis ATCC6633 was 2 µM (≈ 4.01 µg/mL). In the data set with Human RBC, the “Human RBC (% lysis) 50 μM” value is given as 0 % lysis and the “Human RBC (% lysis) 200 μM” value was 0 % lysis. Also, in the data set with Rabbit RBC, the “Rabbit RBC (% lysis) 50 μM” value is on record as 0 % lysis and the “Rabbit RBC (% lysis) 200 μM” value amounted to 2 % lysis.

Consider `C[C@H](NC(=O)[C@H](C)NC(=O)[C@H](C)NC(=O)[C@H](Cc1ccccc1)NC(=O)[C@H](C)NC(=O)[C@H](C)NC(=O)[C@H](C)NC(=O)[C@H](CCCCN)NC(=O)[C@@H](N)CCCCN)C(=O)N[C@@H](C)C(=O)N[C@@H](C)C(=O)N[C@@H](Cc1ccccc1)C(=O)N[C@@H](C)C(=O)N[C@@H](C)C(=O)N[C@@H](Cc1c[nH]c2ccccc12)C(=O)N[C@@H](C)C(=O)N[C@@H](C)C(=O)N[C@@H](Cc1ccccc1)C(=O)N[C@@H](C)C(=O)N[C@@H](C)C(=O)N[C@@H](C)C(=O)N[C@@H](CCCCN)C(=O)N[C@@H](CCCCN)C(=O)N[C@@H](CCCCN)C(=O)N[C@@H](CCCCN)C(N)=O` [Peptide F25] (H-KKAAAFAAAAAFAAWAAFAAAKKKK-NH2; N-terminus assumed), for which the “MIC C498” value in data set [1] came to 8 µM (≈ 19.8 µg/mL). Further, the “MIC C500” value in data set [2] was 4 µM (≈ 9.92 µg/mL). Also, in data set [3], the “MIC C875” value is 0.25 µM (≈ 0.62 µg/mL) and the “MIC C. xerosis C875” value is under 0.25 µM. Besides, in data set [4], the “MIC C621” value lay within 0.5 to 2 µM and the “MIC S. epidermidis C621” value stood at 2 µM (≈ 4.96 µg/mL). In addition, the “MIC E. coli DC2” value against E. coli DC2 (Table 3, Gram-negative) is 4 µM (≈ 9.92 µg/mL). Besides, in the data set on E. coli DC2 (Table 5A), the “MIC E. coli DC2” value was found to be 4 µM (≈ 9.92 µg/mL). Besides, the “MIC E. coli UB1005” value against E. coli UB1005 amounted to 16 µM (≈ 39.7 µg/mL). Moreover, the “MIC E. coli ATCC25922” value with E. coli ATCC25922 was over 32 µM. Besides, the “MIC P. aeruginosa ATCC27853” value against P. aeruginosa ATCC27853 was 8 µM (≈ 19.8 µg/mL). Moreover, the “MIC S. aureus ATCC25923” value against S. aureus ATCC25923 was over 32 µM. In the data set on E. faecalis ATCC29212, the “MIC E. faecalis ATCC29212” value is over 32 µM. Also, in the data set on B. subtilis ATCC6633, the “MIC B. subtilis ATCC6633” value was 1 µM (≈ 2.48 µg/mL). Besides, in the data set with Human RBC, the “Human RBC (% lysis) 50 μM” value stood at 0 % lysis and the “Human RBC (% lysis) 200 μM” value is listed as 1 % lysis. In the data set on Rabbit RBC, the “Rabbit RBC (% lysis) 50 μM” value is 0 % lysis and the “Rabbit RBC (% lysis) 200 μM” value worked out at 4 % lysis.
